Test results taken from the NIST ThermoML archive (doi:10.1016/j.tca.2010.04.025).
Several values for one entry are separate records, joined by “and”; a condition that tells them apart may be missing. Identical values can stand only once. Numbers after ± are expanded uncertainties.

Experiments:
[1] = 101 kPa, Liquid; for speed of sound: Linear variable-path acoustic interferometer; for mass density: Pycnometric method
[2] = xn = mol fraction of the nth substance listed; details: 101 kPa, Liquid; for speed of sound: Linear variable-path acoustic interferometer; for mass density: Pycnometric method

SMILES: Nc1ccccc1 [aniline]
- speed of sound ([1]; 303.15 K): 1615 ± 3 m/s
- mass density ([1]; 303.15 K): 1012.8 ± 0.4 kg/m3
- speed of sound ([1]; 313.15 K): 1583 ± 3 m/s
- mass density ([1]; 313.15 K): 1004.9 ± 0.4 kg/m3
- speed of sound ([1]; 323.15 K): 1558 ± 3 m/s
- mass density ([1]; 323.15 K): 998.4 ± 0.4 kg/m3

SMILES: Nc1ccccc1 [aniline] + C1CCOC1
- speed of sound ([2]; 303.15 K, x2 = 0): 1615 ± 3 m/s
- speed of sound ([2]; 303.15 K, x2 = 0.087): 1592 ± 3 m/s
- speed of sound ([2]; 303.15 K, x2 = 0.1803): 1565 ± 3 m/s
- speed of sound ([2]; 303.15 K, x2 = 0.2735): 1535 ± 3 m/s
- speed of sound ([2]; 303.15 K, x2 = 0.3573): 1509 ± 3 m/s
- speed of sound ([2]; 303.15 K, x2 = 0.4556): 1476 ± 3 m/s
- speed of sound ([2]; 303.15 K, x2 = 0.5638): 1438 ± 3 m/s
- speed of sound ([2]; 303.15 K, x2 = 0.6708): 1393 ± 3 m/s
- speed of sound ([2]; 303.15 K, x2 = 0.8169): 1334 ± 3 m/s
- speed of sound ([2]; 303.15 K, x2 = 0.8812): 1306 ± 2 m/s
- mass density ([2]; 303.15 K, x2 = 0): 1012.8 ± 0.4 kg/m3
- mass density ([2]; 303.15 K, x2 = 0.087): 1004.4 ± 0.4 kg/m3
- mass density ([2]; 303.15 K, x2 = 0.1803): 994.8 ± 0.3 kg/m3
- mass density ([2]; 303.15 K, x2 = 0.2735): 984.8 ± 0.3 kg/m3
- mass density ([2]; 303.15 K, x2 = 0.3573): 975.4 ± 0.3 kg/m3
- mass density ([2]; 303.15 K, x2 = 0.4556): 964.1 ± 0.3 kg/m3
- mass density ([2]; 303.15 K, x2 = 0.5638): 950.5 ± 0.3 kg/m3
- mass density ([2]; 303.15 K, x2 = 0.6708): 935 ± 0.3 kg/m3
- mass density ([2]; 303.15 K, x2 = 0.8169): 910.1 ± 0.3 kg/m3
- mass density ([2]; 303.15 K, x2 = 0.8812): 898.7 ± 0.3 kg/m3
- speed of sound ([2]; 313.15 K, x2 = 0): 1583 ± 3 m/s
- speed of sound ([2]; 313.15 K, x2 = 0.087): 1561 ± 3 m/s
- speed of sound ([2]; 313.15 K, x2 = 0.1803): 1531 ± 3 m/s
- speed of sound ([2]; 313.15 K, x2 = 0.2735): 1500 ± 3 m/s
- speed of sound ([2]; 313.15 K, x2 = 0.3573): 1473 ± 3 m/s
- speed of sound ([2]; 313.15 K, x2 = 0.4556): 1440 ± 3 m/s
- speed of sound ([2]; 313.15 K, x2 = 0.5638): 1402 ± 3 m/s
- speed of sound ([2]; 313.15 K, x2 = 0.6708): 1359 ± 3 m/s
- speed of sound ([2]; 313.15 K, x2 = 0.8169): 1299 ± 2 m/s
- speed of sound ([2]; 313.15 K, x2 = 0.8812): 1267 ± 2 m/s
- mass density ([2]; 313.15 K, x2 = 0): 1004.9 ± 0.4 kg/m3
- mass density ([2]; 313.15 K, x2 = 0.087): 997.5 ± 0.4 kg/m3
- mass density ([2]; 313.15 K, x2 = 0.1803): 988.2 ± 0.4 kg/m3
- mass density ([2]; 313.15 K, x2 = 0.2735): 978.5 ± 0.4 kg/m3
- mass density ([2]; 313.15 K, x2 = 0.3573): 969.4 ± 0.4 kg/m3
- mass density ([2]; 313.15 K, x2 = 0.4556): 957.8 ± 0.4 kg/m3
- mass density ([2]; 313.15 K, x2 = 0.5638): 943.9 ± 0.4 kg/m3
- mass density ([2]; 313.15 K, x2 = 0.6708): 928.7 ± 0.3 kg/m3
- mass density ([2]; 313.15 K, x2 = 0.8169): 904 ± 0.3 kg/m3
- mass density ([2]; 313.15 K, x2 = 0.8812): 892.2 ± 0.3 kg/m3
- speed of sound ([2]; 323.15 K, x2 = 0): 1558 ± 3 m/s
- speed of sound ([2]; 323.15 K, x2 = 0.087): 1537 ± 3 m/s
- speed of sound ([2]; 323.15 K, x2 = 0.1803): 1510 ± 3 m/s
- speed of sound ([2]; 323.15 K, x2 = 0.2735): 1478 ± 3 m/s
- speed of sound ([2]; 323.15 K, x2 = 0.3573): 1450 ± 3 m/s
- speed of sound ([2]; 323.15 K, x2 = 0.4556): 1417 ± 3 m/s
- speed of sound ([2]; 323.15 K, x2 = 0.5638): 1379 ± 3 m/s
- speed of sound ([2]; 323.15 K, x2 = 0.6708): 1334 ± 3 m/s
- speed of sound ([2]; 323.15 K, x2 = 0.8169): 1268 ± 2 m/s
- speed of sound ([2]; 323.15 K, x2 = 0.8812): 1237 ± 2 m/s
- mass density ([2]; 323.15 K, x2 = 0): 998.4 ± 0.4 kg/m3
- mass density ([2]; 323.15 K, x2 = 0.087): 991.5 ± 0.4 kg/m3
- mass density ([2]; 323.15 K, x2 = 0.1803): 981.6 ± 0.4 kg/m3
- mass density ([2]; 323.15 K, x2 = 0.2735): 971.8 ± 0.4 kg/m3
- mass density ([2]; 323.15 K, x2 = 0.3573): 962.4 ± 0.4 kg/m3
- mass density ([2]; 323.15 K, x2 = 0.4556): 951.6 ± 0.4 kg/m3
- mass density ([2]; 323.15 K, x2 = 0.5638): 937.9 ± 0.4 kg/m3
- mass density ([2]; 323.15 K, x2 = 0.6708): 922.6 ± 0.4 kg/m3
- mass density ([2]; 323.15 K, x2 = 0.8169): 898.5 ± 0.4 kg/m3
- mass density ([2]; 323.15 K, x2 = 0.8812): 885 ± 0.4 kg/m3

SMILES: C1CCOC1 [tetrahydrofuran]
- speed of sound ([1]; 303.15 K): 1256 ± 2 m/s
- mass density ([1]; 303.15 K): 877.3 ± 0.3 kg/m3
- speed of sound ([1]; 313.15 K): 1212 ± 2 m/s
- mass density ([1]; 313.15 K): 867.2 ± 0.3 kg/m3
- speed of sound ([1]; 323.15 K): 1171 ± 2 m/s
- mass density ([1]; 323.15 K): 856.6 ± 0.3 kg/m3 and 857.1 ± 0.3 kg/m3

SMILES: C1CCOC1 [tetrahydrofuran] + CCNc1ccccc1
- speed of sound ([2]; 303.15 K, x1 = 1): 1256 ± 2 m/s
- mass density ([2]; 303.15 K, x1 = 1): 877.3 ± 0.3 kg/m3
- speed of sound ([2]; 313.15 K, x1 = 1): 1212 ± 2 m/s
- mass density ([2]; 313.15 K, x1 = 1): 867.2 ± 0.3 kg/m3
- speed of sound ([2]; 323.15 K, x1 = 1): 1171 ± 2 m/s
- mass density ([2]; 323.15 K, x1 = 1): 857.1 ± 0.3 kg/m3

SMILES: C1CCOC1 [tetrahydrofuran] + CNc1ccccc1
- speed of sound ([2]; 303.15 K, x1 = 1): 1256 ± 2 m/s
- mass density ([2]; 303.15 K, x1 = 1): 877.3 ± 0.3 kg/m3
- speed of sound ([2]; 313.15 K, x1 = 1): 1212 ± 2 m/s
- mass density ([2]; 313.15 K, x1 = 1): 867.2 ± 0.3 kg/m3
- speed of sound ([2]; 323.15 K, x1 = 1): 1171 ± 2 m/s
- mass density ([2]; 323.15 K, x1 = 1): 856.6 ± 0.3 kg/m3

SMILES: C1CCOC1 [tetrahydrofuran] + Nc1ccccc1
- speed of sound ([2]; 303.15 K, x1 = 1): 1256 ± 2 m/s
- mass density ([2]; 303.15 K, x1 = 1): 877.3 ± 0.3 kg/m3
- speed of sound ([2]; 313.15 K, x1 = 1): 1212 ± 2 m/s
- mass density ([2]; 313.15 K, x1 = 1): 867.2 ± 0.3 kg/m3
- speed of sound ([2]; 323.15 K, x1 = 1): 1171 ± 2 m/s
- mass density ([2]; 323.15 K, x1 = 1): 856.6 ± 0.3 kg/m3
